Experimental data reported in patent publication US10617735B2, “Methods and compositions for preserving retinal ganglion cells” (Massachusetts Eye and Ear Infirmary, priority 2010, dated 2020).
Where a SMILES comes first, the peptide text is derived from it. The star is where a group is joined. Cbz = O=C(OCc1ccccc1)*; CH2F = FC*

Legend:
Assay type in all cases: in vivo, mouse
[1] = tested on: retinal ganglion cells (RGCs); experiment: IPL thickness and GCL with IPL thickness after ON injury (immunohistochemistry, SD-OCT); details: RIP3−/− mice; one week after ON injury
Method: An anti-TNF-α neutralizing antibody (0.1 mg/ml) or a control antibody was injected into the vitreous of mice that underwent ON injury. One week following injection, the number of RGCs were measured. In addition, inner plexiform layer (IPL) thickness (a location of RGC axons) was also assessed. Specifically, eyes were enucleated and RGC loss was quantified from histological sections of mouse retina. Only transverse sections involving the optic disc were used for analysis and the fields corresponding to approximately 400 μm of both sides of retina extending from the ON head (2 points/section×3 sections per eye, n=6) were examined with an optical microscope (×40 objectives). IPL thickness was measured with OpenLab software (Open Lab, Florence, Italy) (2 points/section×3 sections per eye, n=6). The ratio of IPL thickness was calculated as a percentage of IPL thickness in the normal mouse eyes (n=6).
Inner plexiform layer (IPL) thickness and ganglion cell layer (GCL) with IPL thickness (location of RGC cell bodies and axons) were measured using immunohistochemistry and a Spectral Domain Optical Coherence Tomography (SD-OCT) system (Bioptigen Inc., Durham, N.C.). […] The thickness of GCL+IPL was assessed at 500 μm, 400 μm, 300 μm distance from the ON head (nasally and temporally) as well as at 200 μm, 400 μm above and below the ON head.

[2] = tested on: retinal ganglion cells (RGCs); experiment: Transmission electron microscopy (TEM) quantification of apoptotic and necrotic RGC death after ON injury
Method: In addition, the morphology of RGC death was assessed by transmission electron microscopy (TEM) as previously described (Trichonas et al., (2010) PROC NATL ACAD SCI USA)). Specifically, the eyes were enucleated, and the posterior segments were fixed in 2.5% glutaraldehyde and 2% paraformaldehyde in 0.1 M cacodylate buffer with 0.08 M CaCl2 at 4° C. The eyes were post-fixed for 1.5 hours in 2% aqueous OsO4, dehydrated in ethanol and water, and embedded in EPON. Ultrathin sections were cut from blocks and stained with saturated, aqueous uranyl acetate and Sato's lead stain. […] More than 50 RGCs per eye were photographed and subjected to quantification of cell death in a masked fashion. RGCs showing cellular shrinkage and nuclear condensation were defined as apoptotic cells, and RGCs associated with cellular and organelle swelling and discontinuities in nuclear and plasma membrane were defined as necrotic cells. Electron dense granular materials were labeled simply as end-stage unclassified cell death. Autophagosome was defined as a double- or multi-membraned structure containing cytoplasmic material and/or organelles, and autolysosome was defined as cytoplasmic vesicle containing electron dense degraded material, as previously described (Eskelinen, 2008).
RGC death was categorized into apoptosis, necrosis and unclassified end-stage of death, as previously described (Trichonas et al., (2010) PROC NATL ACAD SCI USA). […] Co-administration of ZVAD and Nec-1 led to a substantial decrease of both apoptotic and necrotic RGC death (% apoptotic cells: 4.2±5.1%, necrotic cells: 9.8±6.6%, unclassified: 1.8±1.8%, P<0.01; FIGS. 4C and 4D).
To identify the RGC death mode seen after ON injury transmission electron microscopy (TEM) studies was performed as previously described. RGCs that were unable to be classified were defined as end-stage cell death/unclassified. […] RGCs contained tubular sacs of rough endoplasmic reticulum (rER) surrounded by large numbers of ribosomes (Nissl bodies). Mitochondria were identified as round or oval double-membrane structures with characteristic cristae. In addition, the cytoplasm contained elements of Golgi apparatus (GA), free ribosomes and microtubules sectioned at various angles. A large round nucleus, surrounded by a double-layered nuclear membrane, contained homogeneously dispersed karyoplasm (chromatin material) and one or two electron dense nucleoli (FIG. 8A) (Saggu et al., (2010) BMC NEUROSCI 11:97)). After ON injury, RGC death through apoptosis was predominant.

[3] = tested on: retinal ganglion cells (RGCs); experiment: NMDA retinal excitotoxicity model: TUNEL staining; details: NMDA injected intravitreously in combination with the compounds
Text: Two mouse models of RGC death were utilized: optic nerve (ON) injury and N-methyl-D-aspartate (NMDA) retinal excitotoxicity. ON injury leads to RGC death as a result of primary damage to the axons, with its ensuing disruption of retrograde axonal transport (Libby et al., (2005) PLOS GENET 1:17-26) and is used as an RGC death model. In the ON injury model, mice were anesthetized and subjected to severe crush injury at 1-2 mm distance from the eyeball for 15 seconds using cross-action forceps taking special care not to interfere with the blood supply (Levkovitch-Verbin, (2004) EYE 18:1066-1074). Injured mice were randomly divided into 4 groups for treatment: vehicle group (0.5% DMSO and 0.8% cyclodextrin in PBS, n=6), ZVAD group (300 n=6), Nec-1 group (4 mM, n=6), and ZVAD plus Nec-1 group (n=6). Soon after injury, each group received an intravitreal injection (2 μl) with the respective compounds. In the NMDA retinal excitotoxicity model, NMDA (2 μl of a 0.1M stock; Sigma-Aldrich) was injected intravitreously in combination with ZVAD, Nec-1, or ZVAD plus Nec-1 and mice were separated into the aforementioned 4 groups. […]

[4] = one day after ON injury, mean±SD

In the case of `COC(=O)CC(NC(=O)C(C)NC(=O)C(NC(=O)OCc1ccccc1)C(C)C)C(=O)CF` (stereo not drawn) [Z-VAD, Benzyloxycarbonyl-Val-Ala-Asp(OMe)-fluoromethylketone] (Cbz-Val-Ala-Asp(OMe)-CH2F; configuration not given here), the IPL thickness [1] is reported as “preservation of IPL thickness”, the “mode of RGC death, apoptotic versus necrotic (TEM)” value ([2]; after ON injury) is reported as “blocked apoptotic cell death and sensitized cells to necrotic cell death” and the “apoptotic cells (RGC death, TEM)” value [2, 4] is reported as 5.6±3.4%. The “necrotic cells (RGC death, TEM)” value [2, 4] was 30.7±4.9%, the “unclassified end-stage of death (TEM)” value [2, 4] was 3.4±2.3% and the “number of TUNEL positive cells” value [3] was “decreased the number of TUNEL positive cells”.
